Measured values published in patent US11492331B2, “Redox substrates for leukocyte esterase” (THE BOARD OF REGENTS OF THE UNIVERSITY OF TEXAS SYSTEM, priority 2017, dated 2022).
≈ marks a conversion by molar mass, not a printed value. Where a name gives a salt, the structure may show the parent alone.

Assays:
[1] = tested on: leukocyte esterase (LE); experiment: Kinetics of reaction with LE by ICECEA (Michaelis-Menten); assay type: biochemical, human; conditions: 6.0 nM LE; for Km / kcat: 1-40 μM compound, PBS pH 7.40, 21° C.; for kcat Km^−1: PBS pH 7.40, Table 2
Method: FIG. 2. Michaelis-Menten plots for 6.0 nM LE and 1-40 μM compound: (a) I, (b) II, and (c) III, in PBS (pH 7.40). The solid lines represent the best fit to the experimental points based on the nonlinear regression.
The properties of compounds I-III as LE substrates were further investigated by determining their kinetics of reaction with LE (reaction 1). The initial rate of reaction 1 was measured by ICECEA at a constant LE concentration (cLE=6.0 nM; MW=29 kDa) and under the condition of cLE<<ccompound I-III(ccompound I-III=1-40 μM). The assays were conducted within a linear range of calibration plot for HQ at a GC electrode. One unit (U) of LE activity was defined as the amount of enzyme that catalyzed the hydrolysis of 1.0 μmole of a compound I-III per minute in a PBS solution at room temperature (21° C.). The LE activity (U L^−1) was calculated from the equation
[formula] where AS is an assay slope equal to the slope of rising I-t segment and CS is a calibration slope calculated from the I-t steps of ICECEA traces similar to those shown in FIG. 1. […] The analysis of such plots using the Michaelis-Menten kinetics yielded the Michaelis constants Km and turnover numbers kcat, which are shown in Table 1.

[2] = Solubility in water by UV-visible spectrophotometry; assay type: physicochemical; conditions: thermodynamic from solid, room temperature (21° C.), A270
Method: Solubility. The solubility of compounds I-III was determined by UV-visible spectrophotometry. The compounds were dissolved in water at room temperature (21° C.) to make a series of solutions with increasing concentration. The solutions were stirred continuously and their spectra were recorded until steady-state equilibrium was reached. Below the solubility limit, the steady-state background-corrected absorbance of solution at 270 nm (A270) was directly proportional to the compound concentration as expected by the Beer-Lambert law. Above the solubility limit, the absorbance steadily levelled off. The low- and high-concentration regions of plots A270 vs. compound concentration were linearized and extrapolated to a crossing point, which was taken as the solubility of compound.

[3] = tested on: leukocyte esterase (LE) of white blood cell (WBC) suspensions; experiment: Electrochemical LE assay (ICECEA) of human leukocyte suspensions; assay type: biochemical; conditions: for Average activity of single WBC: 100 μM substrate, pH 7.40 PBS, 0.40 V, from slopes of FIG. 3
Method: FIG. 3. Dependence of LE activity on the white blood cell (WBC) count in leukocyte suspensions determined by using ICECEA and compound: (a) I, (b) II, and (c) III. Assay solution, 100 μM substrate I, II, or III in a pH 7.40 PBS solution. Concentration of HQ calibration spikes, 0.54 μM. Dilution factor, 100×. Potential, 0.40 V.
Finally, the compounds I-III were tested in the development of electrochemical LE assay using the ICECEA. The assay was optimized with respect to the detection potential, sample dilution factor, and solution composition (pH, concentration). Such assay was used to determine the esterolytic activity of a series of human leukocyte suspensions. […] Accordingly, the average esterolytic activity of single WBC calculated using the slopes of plots in FIG. 3 was the highest when determined using a compound III (Table 2).
Preparation of Leukocyte Suspensions. The original suspension of leukocytes was diluted 10 times with a PBS solution that contained 10 vol. % DMSO and left for 30 min on a shaker table at 60 rpm to lyse the leukocytes chemically. Such a suspension preserved a constant esterolytic activity for at least 5 days when stored in a refrigerator at 4° C. It was used as a solution C (vide infra) for the ICECEA.

[4] = tested on: leukocyte esterase (LE); experiment: ICECEA test of recognition of compounds by LE as substrates (release of hydroquinone); assay type: biochemical, human; conditions: 60 μg mL^−1 compound, 86.7 μg L^−1 LE protein, pH 7.40 PBS, 0.40 V
Method: FIGS. 1A-B. (A) ICECEA I-t trace recorded at 0.40 V in a stirred pH 7.40 assay solution containing a tested compound. Each current step is due to the addition of hydroquinone calibrating aliquot to a solution. […] Otherwise, this segment was flat. (B) ICECEA current-time (I-t) traces recorded at a GC electrode in a stirred assay solution of compound (a) I, (b) II, (c) III. Trace # is for a precursor 1 to compounds I-III (Scheme 2). Arrows indicate the addition of 50 μL aliquots of hydroquinone (HQ) and leukocyte esterase (LE) to generate 0.54 μM HQ and 86.7 μg L^−1 LE protein in a solution. Assay solution, pH 7.40 PBS solution containing 60 μg mL^−1 of compound I-III or precursor 1. Traces were overlaid and shortened to show only the linear portion of ascending I-t segments. Potential, 0.40 V.
The initial electrochemical tests were performed to assess a degree of the recognition of compounds I-III by LE as its substrates. […]
The ICECEA was conducted by using phosphate buffer saline (PBS) solutions (pH 7.40, 154 mM NaCl) that contained either a tested compound, HQ, or LE. The current flowing through the GC electrode was measured while spiking 5.00 mL of a stirred assay solution of tested compound with triplicate aliquots of HQ solution and an aliquot of LE solution (FIG. 1). […]

| Km [1] | kcat [1] | kcat Km^−1 [1] | solubility [2] | recognition by LE as substrate (rising I-t segment after LE addition) [4] | Compound | Average activity of single WBC [3] | detection limit of LE assay ([3]; human leukocyte suspensions, ICECEA) |
| --- | --- | --- | --- | --- | --- | --- | --- |
| 12 µM | 3.2 s⁻¹ | 270000 M⁻¹ s⁻¹ | 50 µg/mL (≈ 93.5 µM) | – | C[C@H](NS(=O)(=O)c1cccnc1)C(=O)Oc1ccc(OC(=O)[C@H](C)NS(=O)(=O)c2cccnc2)cc1 [Compound I, 4-(((pyridin-3-ylsulfonyl)-L-alanyl)oxy)phenyl (pyridin-3-ylsulfonyl)-L-alaninate] | 0.8 nU | – |
| 14 µM | 5.3 s⁻¹ | 380000 M⁻¹ s⁻¹ | 500 µg/mL (≈ 841 µM) | – | COc1ccc(S(=O)(=O)N[C@@H](C)C(=O)Oc2ccc(OC(=O)[C@H](C)NS(=O)(=O)c3ccc(OC)nc3)cc2)cn1 [Compound II, 4-((((6-methoxypyridin-3-yl)sulfonyl)-L-alanyl)oxy)phenyl ((6-methoxypyridin-3-yl)sulfonyl)-L-alaninate] | 1.5 nU | – |
| 11 µM | 6.4 s⁻¹ | 580000 M⁻¹ s⁻¹ | 4000 µg/mL (≈ 6150 µM) | – | COC(=O)c1cncc(S(=O)(=O)N[C@@H](C)C(=O)Oc2ccc(OC(=O)[C@H](C)NS(=O)(=O)c3cncc(C(=O)OC)c3)cc2)c1 [Compound III, methyl 5-{[(2S)-1-(4-{[(2S)-2-[5-(methoxycarbonyl)pyridine-3-sulfonamido]propanoyl]oxy}phenoxy)-1-oxopropan-2-yl]sulfamoyl}pyridine-3-carboxylate] | 4.5 nU | 20 WBC μL^−1 |
| – | – | – | – | no rising I-t segment | C[C@H](N)C(=O)Oc1ccc(OC(=O)[C@H](C)N)cc1 [precursor 1, 1,4-phenylene (2S,2′S)-bis(2-aminopropanoate)-bis hydrochloride] | – | – |
